Laboratory results as given in patent US5863950A, “HIV protease inhibitors” (Agouron Pharmaceuticals, Inc., priority 1994, dated 1999).
≈ marks a conversion by molar mass, not a printed value. Read-outs that look alike come from different tables or passages of the source.

Tests used:
HIV = assay: antiviral assay (enantiomer comparison, cell line not given); format: cell-based; settings: enantiomers compared with each other
HIV-1 protease = target: T1, HIV-1 protease (Human immunodeficiency virus type 1 group M subtype B, UniProt P04585); assay: biochemical; format: biochemical
T1 construct: purified HIV-1 protease
Description: 1. Proteolytic activity of purified HIV-1 protease was routinely measured using the chromogenic assay developed by Richards et al. (J. Biol. Chem. 265: 7733 (1990)). Synthetic peptide His-Lys-Ala-Arg-Val-Leu-Phe (pNO2)-Glu-Ala-Nle-Ser-NH2 (American Peptide Company) was used as the substrate.
2. The assay was carried out in 0.5M NaCl, 50 mM MES pH 5.6, 2% DMSO (dimethylsulfoxide) at 37° C. Cleavage of the scissile bond between leucine and paranitro-phenylalanine (Phe(pNO2)) was assayed by spectrophotometric monitoring of the decrease in absorbance at 305 nm. Initial velocity was determined as the rate of decline of absorbance during the first 100 seconds of reaction.
3. […] Between 15-25 concentrations of inhibitor were added and velocity of reaction was measured at each of the concentrations, as described above.
4. Inhibition constants were calculated using the method of Jackson et al. (Adv. in Enzyme Regulation 22: 187 (1984)).

HIV-1 (CEM cells) = assay: Anti-HIV MTT assay, inhibition of HIV-induced cell killing, CEM cells; format: cell-based, HIV-1 isolates IIIB and/or RF; settings: Human immunodeficiency virus 1, CCRF-CEM, 144 h, CEM cell line (first position), 6 days, 37° C., read-out: Viral CEM
Source text: (§1) SRI has an established program for the primary antiviral analysis of compounds in microtiter assays which measure the ability of a selected compound to inhibit HIV-induced cell killing. This assay involves the conversion of the tetrazolium dye MTT to a colored formazan product by mitochondrial enzymes in metabolically active cells. This assay system is presently used at SRI to screen over 30,000 compounds per year. Briefly, the assay involves the infection of CEM or MT2 cells in round bottom 96-well plates. The compound of interest is added just prior to infection. Following 6 days of incubation at 37° C. the plates are stained with MTT. The results of the assay are quantitated spectrophotometrically on a Molecular Devices Vmax plate reader. The data is analyzed by linear regression utilizing an in-house software program to calculate antiviral activity. (IC25, IC50, IC95) and toxicity (TC25, TC50, TC95) as well as other values.
(§2) Primary antiviral assays are routinely performed in CEM or MT-2 cells.
(§3) Drugs will be solubilized in the appropriate vehicle such as distilled water or DMSO if necessary. Latex gloves, lab coats and masks are used during all phases of the handling process to prevent exposure to potentially harmful agents. The drug is prepared at the appropriate concentration and stored at -20° C. until used by the screening laboratory. The first dilution of each compound is made in a dilution tube with medium to yield a concentration two-fold that of the highest test concentration. Sterile titer tubes are then used to make serial one half-log dilutions of each compound. Following drug dilution, the diluted compound is added to the appropriate well of a 96-well microtiter plate. Up to 12 dilutions can be assayed conveniently in triplicate on a single plate with all appropriate controls including cell control, virus control, toxicity control, drug color control, medium control and plastic (background) control. When testing includes only six dilutions, two drugs can be assayed on a single microtiter plate. The drugs are added to the plate in a final volume of 100 microliters.
(§4) During the time the drug dilutions are prepared, cells are washed and counted. Viability is monitored by trypan blue dye exclusion and assays are not performed if the viability falls below 90%. Cells are maintained in an exponential growth phase and are split 1:2 on the day prior to assay to assure exponential growth rate.
(§5) For the primary screen, the cell lines utilized are CEM and MT-2. Unless otherwise indicated, the medium used is RPMI 1640 with 10% heat-inactivated fetal calf serum (FBS), glutamine and antibiotics.
(§6) Cells are propagated at 37° C. in an atmosphere of 5% CO2 in air. The virus employed for this work is HIV-1 isolates IIIB and/or RF, which are prepared by an acute infection process.
(§7) Briefly, virus-infected cells are pelleted on a daily basis beginning at three days post-infection until the virus has killed all of the cells in the culture. Reverse transcriptase activity and p24 ELISA are used to identify pools with the greatest amount of virus.
(§8) These 24-hour harvests are pooled, filtered and frozen at -90° C. Prior to use in the assay, the infectious pool of virus is titered on all available cell lines in order to determine the amount of virus required in the antiviral assay.
(§9) In general, pools produced by the acute infection method require the addition of one microliter of infectious virus per well resulting in the screening of drugs at a multiplicity of infection of 0.01. In this manner enough virus is prepared and frozen to complete over one thousand microtiter plates, allowing the testing of up to two thousand compounds from a single stock of infectious virus. The use of a single stock of virus for a long period of testing has very favorable effects on the repeatability of the assay systems.
(§10) Virus infection of the CEM and MT-2 cells for the antiviral assay is carried out in a bulk infection process. […]

HIV-1 (MT-2 cells) = assay: Anti-HIV MTT assay, inhibition of HIV-induced cell killing, MT-2 cells; format: cell-based, HIV-1 isolates IIIB and/or RF; settings: Human immunodeficiency virus 1, MT2, 144 h; MT-2 cells (second position), 6 days, 37° C., MTT; read-out: Viral MT-2
Source text: as §1, §2, §3, §4, §5, §6, §7, §8, §9, §10

[1] = 0.5M NaCl, 50 mM MES pH 5.6, 2% DMSO, 37° C., 200 μM substrate

SMILES: CCC1(N(CCO)C(=O)c2ccccc2CC[C@@H](O)Cc2ccc(C)cc2C(=O)N(CCO)C(C)(C)c2ccccc2)CCCC1 [Example 116a]
- activity in the antiviral assay (HIV): more active

SMILES: CCC1(N(CCO)C(=O)c2ccccc2CCC(O)Cc2ccccc2C(=O)N(CCC(O)CO)C(C)(C)c2ccccc2)CCCC1 (stereo not drawn) [Example 100]
- IC50 (HIV-1 protease; [1]): 110 nM
- Ki (HIV-1 protease; [1]): 7 nM
- IC50 (HIV-1 (CEM cells)): 0.48 µg/mL (≈ 0.729 µM)
- IC50 (HIV-1 (MT-2 cells)): 1.94 µg/mL (≈ 2.94 µM)

SMILES: CCC1(N(CCO)C(=O)c2ccccc2CCC(O)Cc2ccc(C)cc2C(=O)N(CCC(O)CO)C(C)(C)c2ccccc2)CCCC1 (stereo not drawn) [Example 104]
- IC50 (HIV-1 protease): 81 nM
- Ki (HIV-1 protease): 9.6 nM
- IC50 (HIV-1 (CEM cells)): 0.58 µg/mL (≈ 0.862 µM)
- IC50 (HIV-1 (MT-2 cells)): 0.55 µg/mL (≈ 0.817 µM)

SMILES: CCC1(N(CCO)C(=O)c2ccccc2CCC(O)Cc2ccc(C)cc2C(=O)N(CCO)C(C)(C)c2ccc(OCCN3CCOCC3)cc2)CCCC1 (stereo not drawn) [Example 108]
- IC50 (HIV-1 protease; [1]): 108 nM
- Ki (HIV-1 protease; [1]): 9.8 nM
- IC50 (HIV-1 (CEM cells)): 0.64 µg/mL (≈ 0.844 µM)
- IC50 (HIV-1 (MT-2 cells)): 0.56 µg/mL (≈ 0.739 µM)

SMILES: CCC1(N(CC(CO)CO)C(=O)c2ccccc2CCC(O)Cc2ccc(C)cc2C(=O)N(CC(CO)CO)C(C)(C)c2ccccc2)CCCC1 (stereo not drawn) [Example 107]
- IC50 (HIV-1 protease; [1]): 92 nM
- Ki (HIV-1 protease; [1]): 32 nM
- IC50 (HIV-1 (CEM cells)): 1.44 µg/mL (≈ 2.01 µM)
- IC50 (HIV-1 (MT-2 cells)): 1.34 µg/mL (≈ 1.87 µM)

SMILES: Cc1ccc(CCC(O)Cc2ccccc2C(=O)N(CCOCc2ccccc2)C(C)(C)c2ccccc2)c(C(=O)N(CCO)C(C)(C)C)c1 (stereo not drawn) [Example 84]
- IC50 (HIV-1 protease; [1]): 351 nM
- Ki (HIV-1 protease; [1]): 315 nM
- IC50 (HIV-1 (CEM cells)): > 100 µg/mL
- IC50 (HIV-1 (MT-2 cells)): > 100 µg/mL

SMILES: CC(C)(C)NC(=O)c1cc(Sc2ccccc2)ccc1CCC(O)Cc1ccccc1C(=O)N(CCO)C(C)(C)C (stereo not drawn) [Example 73]
- IC50 (HIV-1 protease; [1]): 680 nM
- Ki (HIV-1 protease; [1]): 717 nM
- IC50 (HIV-1 (CEM cells)): > 10 µg/mL
- IC50 (HIV-1 (MT-2 cells)): > 10 µg/mL

SMILES: CCC1(N(CCO)C(=O)c2ccccc2CC[C@H](O)Cc2ccc(C)cc2C(=O)N(CCO)C(C)(C)c2ccccc2)CCCC1 [Example 116b]
- activity in the antiviral assay (HIV): less active

SMILES: CC(C)(C)N(CCO)C(=O)c1ccccc1CCC(=O)C(F)(F)c1ccccc1C(=O)N(CCO)C(C)(C)c1ccccc1 [Example 78]
- IC50 (HIV-1 protease; [1]): 420 nM
- Ki (HIV-1 protease; [1]): 320 nM
- IC50 (HIV-1 (CEM cells)): > 10 µg/mL
- IC50 (HIV-1 (MT-2 cells)): 6.64 µg/mL (≈ 10.9 µM)

SMILES: CCc1ccc(CC(O)CCc2ccccc2C(=O)N(CCO)C(C)(C)c2ccccc2)c(C(=O)N(CCO)C(C)(C)c2ccccc2)c1 (stereo not drawn) [Example 89]
- IC50 (HIV-1 protease; [1]): 144 nM
- Ki (HIV-1 protease; [1]): 17 nM
- IC50 (HIV-1 (CEM cells)): 1 µg/mL (≈ 1.5 µM)
- IC50 (HIV-1 (MT-2 cells)): 1.79 µg/mL (≈ 2.69 µM)

SMILES: CC(C)(C)N(CCO)C(=O)c1ccccc1CCC(O)Cc1ccccc1C(=O)N(CCOc1ccncc1)C(C)(C)c1ccccc1 (stereo not drawn) [Example 83]
- IC50 (HIV-1 protease; [1]): 2500 nM
- Ki (HIV-1 protease; [1]): 735 nM
- IC50 (HIV-1 (CEM cells)): > 100 µg/mL
- IC50 (HIV-1 (MT-2 cells)): > 100 µg/mL

SMILES: CC(C)(C)N(CCO)C(=O)c1ccccc1CCC(O)Cc1ccccc1C(=O)N(Cc1ncc[nH]1)C(C)(C)c1ccccc1 (stereo not drawn) [Example 72]
- IC50 (HIV-1 protease; [1]): 326 nM
- Ki (HIV-1 protease; [1]): 100 nM
- IC50 (HIV-1 (CEM cells)): 5.54 µg/mL (≈ 9.07 µM)
- IC50 (HIV-1 (MT-2 cells)): 17.9 µg/mL (≈ 29.3 µM)

SMILES: CCC1(N(CCO)C(=O)c2ccccc2CCC(O)Cc2ccc(C)cc2C(=O)N(CC2COC(C)(C)OC2)C(C)(C)c2ccccc2)CCCC1 (stereo not drawn) [Example 102]
- IC50 (HIV-1 protease; [1]): 133 nM
- Ki (HIV-1 protease; [1]): 2.3 nM
- IC50 (HIV-1 (CEM cells)): 0.42 µg/mL (≈ 0.589 µM)
- IC50 (HIV-1 (MT-2 cells)): 0.47 µg/mL (≈ 0.659 µM)

SMILES: CC(C)(C)N(CCO)C(=O)c1ccccc1CCC(O)Cc1ccccc1C(=O)N(CCO)C12CCCCC1CCC2 (stereo not drawn) [Example 81]
- IC50 (HIV-1 protease; [1]): 230 nM
- Ki (HIV-1 protease; [1]): 64 nM
- IC50 (HIV-1 (CEM cells)): 4.39 µg/mL (≈ 7.58 µM)
- IC50 (HIV-1 (MT-2 cells)): 5.58 µg/mL (≈ 9.64 µM)

SMILES: CCC1(N(CCO)C(=O)c2ccccc2CCC(O)Cc2ccc(C)cc2C(=O)N(CC(CO)CO)C(C)(C)c2ccccc2)CCCC1 (stereo not drawn) [Example 103]
- Ki (HIV-1 protease): 10 nM
- IC50 (HIV-1 protease; [1]): 106 nM
- IC50 (HIV-1 (CEM cells)): 0.64 µg/mL (≈ 0.951 µM)
- IC50 (HIV-1 (MT-2 cells)): 1.15 µg/mL (≈ 1.71 µM)

SMILES: CCC1(N(CCO)C(=O)c2ccccc2CCC(O)Cc2ccccc2C(=O)N(CCO)C(CC)(CC)c2ccccc2)CCCC1 (stereo not drawn) [Example 95]
- IC50 (HIV-1 protease; [1]): 90 nM
- Ki (HIV-1 protease; [1]): 1.5 nM
- IC50 (HIV-1 (CEM cells)): 0.6 µg/mL (≈ 0.933 µM)
- IC50 (HIV-1 (MT-2 cells)): 1.46 µg/mL (≈ 2.27 µM)

SMILES: CCC1(N(CCO)C(=O)c2ccccc2CCC(O)Cc2ccc(C)cc2C(=O)N(CCO)C(C)(C)c2ccc(OCc3cccnc3)cc2)CCCC1 (stereo not drawn) [Example 98]
- IC50 (HIV-1 protease; [1]): 103 nM
- Ki (HIV-1 protease; [1]): 2 nM
- IC50 (HIV-1 (CEM cells)): 0.48 µg/mL (≈ 0.652 µM)
- IC50 (HIV-1 (MT-2 cells)): 1.94 µg/mL (≈ 2.64 µM)

SMILES: CCSc1ccc(CC(O)CCc2ccccc2C(=O)N(CCO)C2(CC)CCCC2)c(C(=O)N(CCO)C(C)(C)c2ccccc2)c1 (stereo not drawn) [Example 99]
- IC50 (HIV-1 protease; [1]): 196 nM
- Ki (HIV-1 protease; [1]): 15 nM
- IC50 (HIV-1 (CEM cells)): 1.62 µg/mL (≈ 2.4 µM)
- IC50 (HIV-1 (MT-2 cells)): 5.75 µg/mL (≈ 8.52 µM)
